Data published in patent US10344049B2, “Substituted steroids for the treatment of cancer” (AQUAVAN TECHNOLOGY CO., LTD., priority 2017, dated 2019).
Where two headings read alike, the source gives them in different places.

How the values were obtained:
Format in all cases: cell-based
[1] = system: human colorectal cancer cells SW-480; assay: Cell viability test (Resazurin), SW480 cells
Protocol: (§1) Cell viability was determined with Resazurin (at a final concentration of 25 μg/mL).

[2] = system: human liver cancer cells Mahlavu; assay: Cell viability test (Resazurin), Mahlavu cells
Protocol: as §1

[3] = system: human breast cancer cells MDA-MB-231; assay: Cell viability test (Resazurin), MDA-MB-231 cells
Protocol: as §1

[4] = system: human leukemia cells U937; assay: Cell viability test (Resazurin), U937 cells
Protocol: as §1

[5] = system: African green monkey kidney cells Vero; assay: Cell viability test (Resazurin), Vero cells
Protocol: as §1

[6] = system: human lung cancer cells A549; assay: Cell viability test (Resazurin), A549 cells; set-up: evaluation of ability to inhibit cell growth activity (IC50): scale not given here
Protocol: as §1

[7] = system: human breast cancer cells MDA-MB-468; assay: Cell viability test (Resazurin), MDA-MB-468 cells
Protocol: as §1

[8] = system: human Glioblastoma cells U87-MG; assay: Cell viability test (Resazurin), U87-MG cells
Protocol: as §1

[9] = Homo sapiens, SW480, 48 h, SW480 cells, 48 hours, 0.1% FCS, Resazurin, read-out: inhibitory concentrations of cell growth activity IC50
[10] = SW480 cells, grade of the IC50 of Table 2, read-out: evaluation of ability to inhibit cell growth activity (IC50)
[11] = Homo sapiens, Mahlavu, 48 h, 0.1% FCS, Resazurin, read-out: inhibitory concentrations of cell growth activity IC50
[12] = Homo sapiens, Mahlavu, grade of the IC50 of Table 2, read-out: evaluation of ability to inhibit cell growth activity (IC50)
[13] = MDA-MB-231 cells, 48 hours, 0.1% FCS, Resazurin, read-out: inhibitory concentrations of cell growth activity IC50
[14] = MDA-MB-231 cells, grade of the IC50 of Table 2, read-out: evaluation of ability to inhibit cell growth activity (IC50)
[15] = Homo sapiens, U-937, U937 cells, grade of the IC50 of Table 2, read-out: evaluation of ability to inhibit cell growth activity (IC50)
[16] = U937 cells, 48 hours, 0.1% FCS, Resazurin, read-out: inhibitory concentrations of cell growth activity IC50
[17] = 48 hours, 0.1% FCS, Resazurin, read-out: inhibitory concentrations of cell growth activity IC50
[18] = Chlorocebus sabaeus, Vero, grade of the IC50 of Table 2, read-out: evaluation of ability to inhibit cell growth activity (IC50)
[19] = A549 cells, 48 hours, 0.1% FCS, Resazurin, read-out: inhibitory concentrations of cell growth activity IC50
[20] = Homo sapiens, A549, A549 cells, grade of the IC50 of Table 2, read-out: evaluation of ability to inhibit cell growth activity (IC50)
[21] = MDA-MB-468 cells, 48 hours, 0.1% FCS, Resazurin, read-out: inhibitory concentrations of cell growth activity IC50
[22] = MDA-MB-468 cells, grade of the IC50 of Table 2, read-out: evaluation of ability to inhibit cell growth activity (IC50)
[23] = grade of the IC50 of Table 2, read-out: evaluation of ability to inhibit cell growth activity (IC50)
[24] = Homo sapiens, SW480, SW480 cells, grade of the IC50 of Table 2, read-out: evaluation of ability to inhibit cell growth activity (IC50)
[25] = Homo sapiens, MDA-MB-231, 48 h, MDA-MB-231 cells, 48 hours, 0.1% FCS, Resazurin, read-out: inhibitory concentrations of cell growth activity IC50
[26] = Homo sapiens, MDA-MB-231, MDA-MB-231 cells, grade of the IC50 of Table 2, read-out: evaluation of ability to inhibit cell growth activity (IC50)
[27] = Homo sapiens, U-937, 48 h, U937 cells, 48 hours, 0.1% FCS, Resazurin, read-out: inhibitory concentrations of cell growth activity IC50
[28] = Chlorocebus sabaeus, Vero, 48 h, 0.1% FCS, Resazurin, read-out: inhibitory concentrations of cell growth activity IC50
[29] = A549 cells, grade of the IC50 of Table 2
[30] = Homo sapiens, A549, 48 h, A549 cells, 48 hours, 0.1% FCS, Resazurin, read-out: inhibitory concentrations of cell growth activity IC50
[31] = Homo sapiens, MDA-MB-468, 48 h, MDA-MB-468 cells, 48 hours, 0.1% FCS, Resazurin, read-out: inhibitory concentrations of cell growth activity IC50
[32] = Homo sapiens, MDA-MB-468, MDA-MB-468 cells, grade of the IC50 of Table 2, read-out: evaluation of ability to inhibit cell growth activity (IC50)
[33] = Homo sapiens, U-87 MG, 48 h, 0.1% FCS, Resazurin, read-out: inhibitory concentrations of cell growth activity IC50
[34] = Homo sapiens, U-87 MG, grade of the IC50 of Table 2, read-out: evaluation of ability to inhibit cell growth activity (IC50)

Compound | IC50 [1, 9] [µM] | IC50 [1, 10] [µM] | IC50 [2, 11] [µM] | IC50 [2, 12] [µM] | IC50 [3, 13] [µM] | IC50 [3, 14] [µM] | IC50 [4, 15] [µM] | IC50 [4, 16] [µM] | IC50 [5, 17] [µM] | IC50 [5, 18] [µM] | IC50 [6, 19] [µM] | IC50 [6, 20] [µM] | IC50 [7, 21] [µM] | IC50 [7, 22] [µM] | IC50 [8, 17] [µM] | IC50 [8, 23] [µM] | IC50 [1, 24] [µM] | IC50 [3, 25] [µM] | IC50 [3, 26] [µM] | IC50 [4, 27] [µM] | other results
COC1O[C@]23C=C[C@@H]4[C@@]1(CC[C@]1(C)[C@@H]([C@H](C)C/C=C/C(C)(C)O)CC[C@@]41C)[C@@H]2CC[C@H](O)C3(C)C (stereo partly drawn) [Compound 19] | 16.6 | 16 to 64 | 20.7 | 16 to 64 | 22.6 | 16 to 64 | 8 to 16 | 11.9 | 36.1 | 16 to 64 | 45.6 | 16 to 64 | 24.4 | 16 to 64 | 25 | 16 to 64 | – | – | – | – | evaluation of ability to inhibit cell growth activity (IC50) ([4]; U937 cells, grade of the IC50 of Table 2): ◯
CC(=O)O[C@H]1C=C2[C@@H](CC[C@H](OC(C)=O)C2(C)C)[C@]2(C=O)CC[C@]3(C)[C@@H]([C@H](C)C[C@H](C=C(C)C)OC(C)=O)CC[C@@]3(C)[C@H]12 [Compound 3] | 18.2 | – | 23 | 16 to 64 | – | – | < 8 | – | – | > 256 | – | 8 to 16 | – | – | – | – | 16 to 64 | 5.2 | < 8 | 3.45 | IC50 [5, 28]: > 256 µM; evaluation of ability to inhibit cell growth activity (IC50) [6, 29]: ◯; IC50 [6, 30]: 12.2 µM; IC50 [7, 31]: 10.4 µM; IC50 [7, 32]: 8 to 16 µM; evaluation of ability to inhibit cell growth activity (IC50) ([7]; MDA-MB-468 cells, grade of the IC50 of Table 2): ◯; IC50 [8, 33]: 6.82 µM; IC50 [8, 34]: < 8 µM
CO[C@H]1C=C2[C@@H](CC[C@H](O)C2(C)C)[C@]2(C=O)CC[C@]3(C)[C@@H]([C@H](C)C/C=C/C(C)(C)OC)CC[C@@]3(C)[C@H]12 [Compound 23] | 7.56 | – | 15.4 | 8 to 16 | – | – | < 8 | – | – | – | – | 8 to 16 | – | – | – | – | < 8 | 7.91 | < 8 | 5.75 | evaluation of ability to inhibit cell growth activity (IC50) ([2]; grade of the IC50 of Table 2): ◯; IC50 [5, 28]: 15.9 µM; evaluation of ability to inhibit cell growth activity (IC50) ([5]; grade of the IC50 of Table 2): ◯; evaluation of ability to inhibit cell growth activity (IC50) [6, 29]: ◯; IC50 [6, 30]: 15.3 µM; IC50 [7, 31]: 7.55 µM; IC50 [7, 32]: < 8 µM; IC50 [8, 33]: 7.65 µM; IC50 [8, 34]: < 8 µM
C[C@H](C/C=C/C(C)(C)O)[C@H]1CC[C@@]2(C)[C@@H]3[C@@H](O[C@@H]4O[C@H](CO)[C@@H](O)[C@H](O)[C@H]4O)C=C4[C@@H](CC[C@H](O)C4(C)C)[C@]3(C=O)CC[C@]12C [Compound 14] | – | 64 to 256 | – | – | 32.8 | 16 to 64 | – | 19.8 | > 256 | – | 171 | – | 39.3 | 16 to 64 | 58.5 | 16 to 64 | – | – | – | – | IC50 ([1]; SW480 cells, 48 hours, 0.1% FCS, Resazurin, read-out: inhibitory concentrations of cell growth activity IC50): 64.2 µM; IC50 [2, 17]: > 256 µM; IC50 [2, 23]: > 256 µM; IC50 ([4]; U937 cells, grade of the IC50 of Table 2, read-out: evaluation of ability to inhibit cell growth activity (IC50)): 16 to 64 µM; IC50 [5, 23]: > 256 µM; IC50 ([6]; A549 cells, grade of the IC50 of Table 2, read-out: evaluation of ability to inhibit cell growth activity (IC50)): 64 to 256 µM
